Results taken from patent US8895605B2, “Pyrrolidine-substituted flavones as radio-sensitizers for use in the treatment of cancer” (Piramal Enterprises Limited, priority 2009, dated 2014).
Read-outs that look alike come from different tables or passages of the source.

Tested on: FaDu (human head and neck cancer) cells
Experiment: In-vitro MTS assay (cytotoxicity, Compound A alone and with radiation)
Type: cell-based
Settings: for cytotoxicity at 0.7 µM / cytotoxicity at 1 µM / cytotoxicity at 2 µM: FaDu, no radiation; for cytotoxicity at 0.7 µM: 0.7 μM Compound A (IC30) alone; for cytotoxicity at 1 µM: 1 μM Compound A (IC50) alone; for cytotoxicity at 2 µM: 2 μM Compound A (IC70) alone; for Combination index (CI): CompuSyn
From the text: The assay has been carried out according to the method described in Molecular Cancer Therapeutics, 2007, 6(9); the disclosure of which is incorporated by reference for the teaching of the assay. MTS (Promega, Cat #G1111) is a tetrazolium compound ((3-(4,5-dimethylthiazol-2-yl)-5-(3-carboxymethoxyphenyl)-2-(4-sulphophenyl)-2H-tetrazolium, inner salt; MTS) for use in colorimetric assays for determining the number of viable cells in proliferation, cytotoxicity or chemosensitivity assays. This is used with an electron coupling reagent PMS (Phenazine methosulfate). MTS is bioreduced by cells into a formazan that is soluble in tissue culture medium. The absorbance of the formazan at 490 nm can be measured directly from 96 well assay plates without additional processing. Dehydrogenase enzymes found in metabolically active cells accomplish the conversion of MTS into the aqueous soluble formazan. The quantity of formazan product as measured at 490 nm absorbance is directly proportional to the number of living cells in culture. Before testing the effect of Compound A on radiosensitivity of FaDu (human head and neck cancer, ATCC, USA) cells, the dose dependent cytotoxicity of Compound A alone was determined using MTS assay. Tumor cells were incubated in the presence of various concentrations of Compound A for 48 h and subjected to MTS assay. […] The Fa-Du (human head and neck cancer, ATCC, USA) cells were seeded at density of 1500 cells/well in 180 μL of MEM (minimum essential medium) in tissue culture grade 96-well plate and allowed to grow for 24 h in humidified 5% CO2 incubator at 37±1° C. Three identical groups of cells were made. After a time interval of 24 h after seeding, different wells of the first and second group of cells were irradiated at room temperature at dose of 2, 4, 6, 8 and 10 Gy respectively. The second group was further treated 24 h after irradiation (i.e. on the third day of the experiment) with IC30 concentration of Compound A. The third group was treated on the third day of the experiment, with IC30 concentration of Compound A alone. In order to obtain IC30 concentration (0.7 μM) of Compound A in any well, 20 μL of a stock solution of concentration 10×IC30, (i.e. 7 μM) was added to the well (dissolved first in DMSO and then in cell medium, final DMSO concentration should not exceed 0.5%) and diluted to 200 μL with MEM. The wells were incubated for 48 h and 96 h respectively, in humidified 5% CO2 incubator at 37±1° C. After completion of 48 h and 96 h respectively, the medium was removed from all wells and fresh MEM was added and the plates were incubated further for additional 4-6 days or for total of 8-10 days from the start of the experiment. At the end of the experiment, the medium was removed from all wells and 20 μL of MTS (2 mg/ml in phosphate buffer saline, pH 6-6.5 and filter sterilized) and 1 μL of PMS (3 mM in PBS, pH 7.3 and filter sterilized) was added per well along with the cell medium to adjust the total volume to 200 μL/well. The plate was incubated for 2-4 h in humidified 5% CO2 incubator at 37±1° C. The plate was read at 490 nm on Spectrophotometer (SpectraMax, Molecular Devices, USA), and the percentage cytotoxicity using SoftMax, software for SpectraMax was calculated. The above experiment was repeated using IC50 and IC70 concentrations of Compound A. The enhancement in radiation effects in FaDu cell line as evaluated using the CompuSyn software by Chou and Talalay, described in Pharmacological Reviews, 2006, 58, 621-681, which is incorporated herewith by reference. Combination index (CI) is used to evaluate if a combination is additive, synergistic or antagonistic. CI<1 is synergistic, CI=1 is additive and CI>1 is antagonistic. For example, at a treatment of 48 h with a concentration of IC70 of Compound A, the combination was synergistic (CI=0.7) at all the doses of radiation. The combination index in both the cases ie. […]

[1] = Compound A alone, 48 h incubation, FaDu cells
[2] = Homo sapiens, 48 h, read-out: % cytotoxicity 48 h after Compound A treatment
[3] = Homo sapiens, 96 h, read-out: % cytotoxicity 96 h after Compound A treatment

For `CN1CC[C@@H](c2c(O)cc(O)c3c(=O)cc(-c4ccccc4Cl)oc23)[C@@H]1CO.Cl` [Compound A, (+)-trans-2-(2-Chlorophenyl)-5,7-dihydroxy-8-(2-hydroxymethyl-1-methyl-pyrrolidin-3-yl)-chromen-4-one hydrochloride], the “% cytotoxicity 48 h after Compound A treatment” value (“% cytotoxicity 48 h” for short) (2 Gy radiation, then 0.7 μM Compound A (IC30) 24 h after radiation, 48 h) was 23%, the “% cytotoxicity 96 h after Compound A treatment” value (from here on “% cytotoxicity 96 h”) (2 Gy radiation, then 0.7 μM Compound A (IC30) 24 h after radiation, 96 h) was 15% and the “% cytotoxicity 48 h” value (2 Gy radiation, then 1 μM Compound A (IC50) 24 h after radiation, 48 h) was 35%. The “% cytotoxicity 48 h” value (2 Gy radiation, then 2 μM Compound A (IC70) 24 h after radiation, 48 h) was 79%, the “% cytotoxicity 96 h” value (2 Gy radiation, then 2 μM Compound A (IC70) 24 h after radiation, 96 h) was 98% and the “% cytotoxicity 48 h” value (4 Gy radiation, then 0.7 μM Compound A (IC30) 24 h after radiation, 48 h) was 35%. For the same compound, the “% cytotoxicity 96 h” value (4 Gy radiation, then 0.7 μM Compound A (IC30) 24 h after radiation, 96 h) was 31%, the “% cytotoxicity 48 h” value (4 Gy radiation, then 1 μM Compound A (IC50) 24 h after radiation, 48 h) was 50% and the “% cytotoxicity 96 h” value (4 Gy radiation, then 1 μM Compound A (IC50) 24 h after radiation, 96 h) was 37%. For the same compound, the “% cytotoxicity 48 h” value (4 Gy radiation, then 2 μM Compound A (IC70) 24 h after radiation, 48 h) was 86%, the “% cytotoxicity 96 h” value (4 Gy radiation, then 2 μM Compound A (IC70) 24 h after radiation, 96 h) was 96% and the “% cytotoxicity 48 h” value (6 Gy radiation, then 0.7 μM Compound A (IC30) 24 h after radiation, 48 h) was 64%. For the same compound, the “% cytotoxicity 96 h” value (6 Gy radiation, then 0.7 μM Compound A (IC30) 24 h after radiation, 96 h) was 60%, the “% cytotoxicity 48 h” value (6 Gy radiation, then 1 μM Compound A (IC50) 24 h after radiation, 48 h) was 73% and the “% cytotoxicity 96 h” value (6 Gy radiation, then 1 μM Compound A (IC50) 24 h after radiation, 96 h) was 77%. For the same compound, the “% cytotoxicity 48 h” value (6 Gy radiation, then 2 μM Compound A (IC70) 24 h after radiation, 48 h) was 89%, the “% cytotoxicity 96 h” value (6 Gy radiation, then 2 μM Compound A (IC70) 24 h after radiation, 96 h) was 96% and the “% cytotoxicity 48 h” value (8 Gy radiation, then 0.7 μM Compound A (IC30) 24 h after radiation, 48 h) was 79%. For the same compound, the “% cytotoxicity 96 h” value (8 Gy radiation, then 0.7 μM Compound A (IC30) 24 h after radiation, 96 h) was 69%, the “% cytotoxicity 48 h” value (8 Gy radiation, then 1 μM Compound A (IC50) 24 h after radiation, 48 h) was 85% and the “% cytotoxicity 96 h” value (8 Gy radiation, then 1 μM Compound A (IC50) 24 h after radiation, 96 h) was 84%. The “% cytotoxicity 48 h” value (8 Gy radiation, then 2 μM Compound A (IC70) 24 h after radiation, 48 h) was 91%, the “% cytotoxicity 96 h” value (8 Gy radiation, then 2 μM Compound A (IC70) 24 h after radiation, 96 h) was 95% and the “% cytotoxicity 48 h” value (10 Gy radiation, then 0.7 μM Compound A (IC30) 24 h after radiation, 48 h) was 80%. For the same compound, the “% cytotoxicity 96 h” value (10 Gy radiation, then 0.7 μM Compound A (IC30) 24 h after radiation, 96 h) was 85%, the “% cytotoxicity 48 h” value (10 Gy radiation, then 1 μM Compound A (IC50) 24 h after radiation, 48 h) was 86% and the “% cytotoxicity 96 h” value (10 Gy radiation, then 1 μM Compound A (IC50) 24 h after radiation, 96 h) was 90%. For the same compound, the “% cytotoxicity 48 h” value (10 Gy radiation, then 2 μM Compound A (IC70) 24 h after radiation, 48 h) was 91%, the “% cytotoxicity 96 h” value (10 Gy radiation, then 2 μM Compound A (IC70) 24 h after radiation, 96 h) was 94% and the IC30 [1] was 700 nM. It also gave an IC70 [1] of 2000 nM, a cytotoxicity at 0.7 µM [2] of 8% and a cytotoxicity at 0.7 µM [3] of 4%. For the same compound, the cytotoxicity at 1 µM [2] was 20%, the cytotoxicity at 1 µM [3] was 25% and the cytotoxicity at 2 µM [2] was 66%. The cytotoxicity at 2 µM [3] was 83%, the IC50 (Homo sapiens, Compound A alone, 48 h incubation, FaDu cells) was 1000 nM and the “Enhancement in radiation effects (combination class)” value (radiation 6, 8 and 10 Gy followed by Compound A at IC30 for 48 h) was “synergistic (CI<1 is synergistic)”. The “Enhancement in radiation effects (combination class)” value (radiation 6, 8 and 10 Gy followed by Compound A at IC50 for 48 h) was “synergistic (CI<1 is synergistic)”, the “Combination index (CI)” value (radiation + Compound A at IC30, 96 h treatment, all doses of radiation) was 1 and the “Combination index (CI)” value (radiation + Compound A at IC50, 96 h treatment, all doses of radiation) was 1. The “Combination index (CI)” value (radiation + Compound A at IC70, 48 h treatment, all doses of radiation) was 0.7 and the “Combination index (CI)” value (radiation + Compound A at IC70, 96 h treatment, at 2, 4 and 6 Gy) was < 1.
